Test results from PubChem BioAssay AID220 (DTP/NCI, 2004).
Several values for one entry are separate records, joined by “and”; a condition that tells them apart may be missing. Identical values can stand only once. Records with an inconclusive call do not appear.

Tested on: CD8F1 mice, subcutaneous mammary adenocarcinoma, T/C%
Assay: NCI In Vivo Anticancer Drug Screen. Data for tumor model Mammary Adenocarcinoma CD8F1 (subcutaneous) in CD8F1
Settings: higher = larger tumour
Summary of the method: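 Transplantable tumors were established in mice, animals were dosed with compound or vehicle, and survival or tumor size was then measured in both groups. The treated result was divided by the control result.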

[1] = endpoint: median tumor weight change, dose: 125.0 mg/kg/injection, schedule: Q01DX001 (ip), vehicle: Klucel (hydroxypropylcellulose) (HPC)
[2] = endpoint: median tumor weight change, dose: 125.0 mg/kg/injection, schedule: Q01DX001 (ip), vehicle: saline with Tween-80
[3] = endpoint: median tumor weight change, dose: 250.0 mg/kg/injection, schedule: Q01DX001 (ip), vehicle: saline with Tween-80

C=CCc1cn(C2CC(O)C(CO)O2)c(=O)[nH]c1=O (centres undefined) was tested, and the T/C (endpoint: median tumor weight (est.), dose: 25.0 mg/kg/injection, schedule: Q07DX005 (ip), vehicle: saline) was 58 % of control, the T/C (endpoint: median tumor weight (est.), dose: 50.0 mg/kg/injection, schedule: Q07DX005 (ip), vehicle: saline) was 79 % of control and the T/C (endpoint: median tumor weight (est.), dose: 100.0 mg/kg/injection, schedule: Q07DX005 (ip), vehicle: saline) was 86 % of control. The T/C (endpoint: median tumor weight (est.), dose: 200.0 mg/kg/injection, schedule: Q07DX005 (ip), vehicle: saline) was 248 % of control, the T/C (endpoint: median tumor weight (est.), dose: 400.0 mg/kg/injection, schedule: Q07DX005 (ip), vehicle: saline) was 75 % of control and the T/C (endpoint: median tumor weight (est.), dose: 800.0 mg/kg/injection, schedule: Q07DX005 (ip), vehicle: saline) was 79 % of control.
In the case of C/C=C/c1cc2n(c1)C(=O)c1cc(OC3OC(C)C(NC)C(C)(O)C3O)c(C)c(O)c1NC2O (centres undefined), the T/C (endpoint: median tumor weight (est.), dose: 1.0 micrograms/kg/injection, schedule: Q07DX005 (ip), vehicle: saline) is reported as 60 % of control.
With Cn1cnc([N+](=O)[O-])c1SCC(=O)O the T/C (endpoint: median tumor weight (est.), dose: 100.0 mg/kg/injection, schedule: Q07DX005 (ip), vehicle: Klucel (hydroxypropylcellulose) (HPC)) was 100 % of control, the T/C (endpoint: median tumor weight (est.), dose: 200.0 mg/kg/injection, schedule: Q07DX005 (ip), vehicle: Klucel (hydroxypropylcellulose) (HPC)) was 107 % of control and the T/C (endpoint: median tumor weight (est.), dose: 400.0 mg/kg/injection, schedule: Q07DX005 (ip), vehicle: Klucel (hydroxypropylcellulose) (HPC)) was 166 % of control. The T/C (endpoint: median tumor weight (est.), dose: 800.0 mg/kg/injection, schedule: Q07DX005 (ip), vehicle: Klucel (hydroxypropylcellulose) (HPC)) was 65 % of control, the T/C (endpoint: median tumor weight change, dose: 62.5 mg/kg/injection, schedule: Q01DX001 (ip), vehicle: Klucel (hydroxypropylcellulose) (HPC)) was 75 % of control and the T/C [1] was 72 % of control. For the same compound, the T/C (endpoint: median tumor weight change, dose: 250.0 mg/kg/injection, schedule: Q01DX001 (ip), vehicle: Klucel (hydroxypropylcellulose) (HPC)) was 76 % of control, the T/C (endpoint: median tumor weight change, dose: 500.0 mg/kg/injection, schedule: Q01DX001 (ip), vehicle: Klucel (hydroxypropylcellulose) (HPC)) was 74 % of control and the T/C (endpoint: median tumor weight change, dose: 1000.0 mg/kg/injection, schedule: Q01DX001 (ip), vehicle: Klucel (hydroxypropylcellulose) (HPC)) was 60 % of control. The T/C (endpoint: median tumor weight change, dose: 2000.0 mg/kg/injection, schedule: Q01DX001 (ip), vehicle: Klucel (hydroxypropylcellulose) (HPC)) was 68 % of control.
In the case of COC1=C(C)C(=O)C2=C(C1=O)C(CO)N1C(C#N)C3CC4C(C1C2N1CCOC41)N3C (centres undefined), the T/C (endpoint: median tumor weight change, dose: 0.62 mg/kg/injection, schedule: Q01DX001 (ip), vehicle: saline + alcohol) is reported as 120 % of control and the T/C (endpoint: median tumor weight change, dose: 1.25 mg/kg/injection, schedule: Q01DX001 (ip), vehicle: saline + alcohol) is reported as 98 % of control and 107 % of control and 116 % of control.
With Cc1cc(Nc2ccc3c(c2)OCO3)c2cc3c(cc2n1)OCO3 the T/C [1] was 54 % of control.
In the case of CN=C(N)N/N=C(\C)c1ccc2c(c1)Cc1cc(/C(C)=N/NC(N)=NC)ccc1-2, the T/C (endpoint: median tumor weight change, dose: 7.5 mg/kg/injection, schedule: Q01DX001 (ip), vehicle: saline with Tween-80) is reported as 112 % of control and the T/C (endpoint: median tumor weight change, dose: 15.0 mg/kg/injection, schedule: Q01DX001 (ip), vehicle: saline with Tween-80) is reported as 102 % of control.
In the case of Nc1nc([Se])c2ncn(C3OC(CO)C(O)C3O)c2n1 (centres undefined), the T/C (endpoint: median tumor weight (est.), dose: 2.0 mg/kg/injection, schedule: Q07DX005 (ip), vehicle: saline) is reported as 92 % of control, the T/C (endpoint: median tumor weight (est.), dose: 4.0 mg/kg/injection, schedule: Q07DX005 (ip), vehicle: saline) is reported as 54 % of control and the T/C (endpoint: median tumor weight (est.), dose: 8.0 mg/kg/injection, schedule: Q07DX005 (ip), vehicle: saline) is reported as 68 % of control. The T/C (endpoint: median tumor weight (est.), dose: 8.0 mg/kg/injection, schedule: Q07DX005 (ip), vehicle: suspension in saline) was 24 % of control, the T/C (endpoint: median tumor weight (est.), dose: 16.0 mg/kg/injection, schedule: Q07DX005 (ip), vehicle: saline) was 70 % of control and the T/C (endpoint: median tumor weight (est.), dose: 16.0 mg/kg/injection, schedule: Q07DX005 (ip), vehicle: suspension in saline) was 20 % of control. The T/C (endpoint: median tumor weight (est.), dose: 32.0 mg/kg/injection, schedule: Q07DX005 (ip), vehicle: saline) was 30 % of control, the T/C (endpoint: median tumor weight (est.), dose: 32.0 mg/kg/injection, schedule: Q07DX005 (ip), vehicle: suspension in saline) was 51 % of control and the T/C (endpoint: median tumor weight (est.), dose: 64.0 mg/kg/injection, schedule: Q07DX005 (ip), vehicle: saline) was 27 % of control. The T/C (endpoint: median tumor weight (est.), dose: 64.0 mg/kg/injection, schedule: Q07DX005 (ip), vehicle: suspension in saline) was 12 % of control.
With Nc1ccc(S(N)(=O)=O)cc1 the T/C (endpoint: median tumor weight change, dose: 62.5 mg/kg/injection, schedule: Q01DX001 (ip), vehicle: saline with Tween-80) was 112 % of control, the T/C [2] was 110 % of control and the T/C [3] was 88 % of control. For the same compound, the T/C (endpoint: median tumor weight change, dose: 500.0 mg/kg/injection, schedule: Q01DX001 (ip), vehicle: saline with Tween-80) was 64 % of control and the T/C (endpoint: median tumor weight change, dose: 1000.0 mg/kg/injection, schedule: Q01DX001 (ip), vehicle: saline with Tween-80) was 124 % of control.
With BrC[P+](CBr)(CBr)CBr the T/C [2] was 124 % of control and the T/C [3] was 152 % of control.
